How the values were obtained:
[1] = Cytotoxicity against wild type mouse BA/F3 cells assessed as growth inhibition; format: functional, cell-based; details: BaF3
[2] = Oral bioavailability in rat; format: ADME, organism-based; details: in vivo
[3] = Cytotoxicity against mouse BA/F3 cells expressing NPM-ALK fusion gene assessed as growth inhibition; format: functional, cell-based; details: BaF3
KARPAS-299 [4] = assay: Cytotoxicity against human KARPAS299 cells expressing NPM-ALK fusion gene assessed as growth inhibition
Rattus norvegicus [5] = assay: Toxicity in rat xenografted with human NCI-H2228 cells expressing EML4-ALK fusion gene; format: organism-based; details: in vivo
KARPAS-299 [6] = details: Homo sapiens
Description: Antitumor activity against human KARPAS299 cells xenografted in rat assessed as tumor growth inhibition

Canis familiaris = species: Canis familiaris; assay: Cardiotoxicity in dog assessed as QTc prolongation by telemetric analysis; format: toxicity, organism-based, Canis lupus familiaris; details: in vivo
Rhesus monkey = assay: Cardiotoxicity in monkey assessed as QTc prolongation by telemetric analysis; format: toxicity, organism-based, Macaca mulatta; details: in vivo
Rattus norvegicus [7] = assay: Toxicity in rat xenografted with human KARPAS299 cells; format: organism-based, KARPAS-299; details: in vivo
Cytochrome P450 3A4 = Cytochrome P450 3A4 (Homo sapiens, UniProt P08684); assay: Inhibition of CYP3A4 (unknown origin); format: ADME
Cytochrome P450 3A4, sequence (P08684 whole entry): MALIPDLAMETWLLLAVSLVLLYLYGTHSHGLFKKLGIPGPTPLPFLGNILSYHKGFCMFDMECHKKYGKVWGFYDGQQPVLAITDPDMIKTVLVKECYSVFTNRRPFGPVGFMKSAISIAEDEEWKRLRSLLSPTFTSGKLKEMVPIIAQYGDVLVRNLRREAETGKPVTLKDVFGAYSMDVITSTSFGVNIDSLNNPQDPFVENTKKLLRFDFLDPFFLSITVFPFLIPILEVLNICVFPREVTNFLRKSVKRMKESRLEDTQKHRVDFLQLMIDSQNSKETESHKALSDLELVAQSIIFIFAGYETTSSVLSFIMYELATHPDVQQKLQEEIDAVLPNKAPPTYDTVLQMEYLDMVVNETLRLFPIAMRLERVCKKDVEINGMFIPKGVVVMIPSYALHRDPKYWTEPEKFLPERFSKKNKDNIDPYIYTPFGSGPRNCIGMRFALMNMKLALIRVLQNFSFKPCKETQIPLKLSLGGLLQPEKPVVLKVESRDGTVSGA

[8] = Cytotoxicity against mouse BA/F3 cells transfected with Tel-InsR gene assessed as growth inhibition; format: functional, cell-based; details: BaF3
[9] = Metabolic stability in liver microsomes (unknown origin); format: ADME, Microsome

For Cc1cc(Nc2ncc(Cl)c(Nc3ccccc3S(=O)(=O)C(C)C)n2)c(OC(C)C)cc1C1CCNCC1 [CERITINIB], which IC50 [1] is on record?
The IC50 was > 2 µM.

And the bioavailability [2]?
The bioavailability was > 50%.

What about the IC50 [3] of the same compound?
Its IC50 is 0.026 µM.

What about the IC50 (KARPAS-299 [4]) of the same compound?
The IC50 was 0.0228 µM.

And the Activity (Rattus norvegicus [5])?
The Activity was “Non-toxic”.

And the TGI (KARPAS-299 [6])?
The TGI was “Dose-dependent effect”.

And the Activity (Canis familiaris)?
The Activity was “Non-toxic”.

What about the Activity (Rhesus monkey) of the same compound?
The Activity was “Non-toxic”.

What about the Activity (Rattus norvegicus [7]) of the same compound?
Its Activity is “Non-toxic”.

What about the “inhibition (INH)” value (Cytochrome P450 3A4) of the same compound?
The value was “Active”.

And the IC50 [8]?
Its IC50 is 0.32 µM.

And the Stability [9]?
The Stability was “Stable”.
